Measured values reported in patent publication US7557127B2, “HDAC inhibitor” (Astellas Pharma Inc., priority 2004, dated 2009).
Structures can show the parent of a compound that is named as a salt.

How the values were obtained:
[1] = molecular target: T1, human histone deacetylase; experiment: Test 1: Determination of Histone Deacetylase Inhibitor Activity; assay type: biochemical; conditions: enzyme partially purified from human T cell leukemia Jurkat cells; [3H] acetyl-labeled histones; 25° C., 30 minutes; read-out: Test 1: HDAC inhibitory activity IC50
T1 construct: The human histone deacetylase was partially purified from human T cell leukemia Jurkat cells
Procedure: Test 1: Determination of Histone Deacetylase Inhibitor Activity
The partial purification of human histone deacetylase, the preparation of [^3H] acetyl histones, and the assay for histone deacetylase activity were performed basically according to the method as proposed by Yoshida et al. as follows.
Partial Purification of Human Histone Deacetylase
The human histone deacetylase was partially purified from human T cell leukemia Jurkat cells. Jurkat cells (5×10^8 cells) were suspended in 40 mL of the HDA buffer consisting of 15 mM potassium phosphate, pH 7.5, 5% glycerol and 0.2 mM EDTA. After homogenization, nuclei were collected by centrifugation (35,000×g, 10 min) and homogenized in 20 mL of the same buffer supplemented with 1 M (NH4)2SO4. The viscous homogenate was sonicated and clarified by centrifugation (35,000×g, 10 min), and the deacetylase was precipitated by raising the concentration of (NH4)2SO4 to 3.5 M. The precipitated protein was dissolved in 10 mL of the HDA buffer and dialyzed against 4 liters of the same buffer. The dialyzate was then loaded onto a DEAE-cellulose (Whatman DE52) column (25×85 mm) equilibrated with the same buffer and eluted with 300 mL of a linear gradient (0-0.6 M) of NaCl. A single peak of histone deacetylase activity appeared between 0.3 and 0.4 M NaCl.
Preparation of [^3H] Acetyl Histone
To obtain [^3H] acetyl-labeled histone as the substrate for the histone deacetylase assay, 1×10^8 cells of Jurkat in 20 mL of RPMI-1640 medium (supplemented with 10% FBS, penicillin (50 units/mL) and streptomycin (50 μg/mL)) were incubated with 300 MBq [^3H] sodium acetate in the presence of 5 mM sodium butyrate for 30 minutes in 5% CO2-95% air atmosphere at 37° C. in a 75 cm^2 flask, harvested into a centrifuge tube (50 mL), collected by centrifugation at 1000 rpm for 10 minutes, and washed once with phosphate-buffered saline. The washed cells were suspended in 15 mL of ice-cold lysis buffer (10 mM Tris-HCl, 50 mM sodium bisulfite, 1% Triton X-100, 10 mM MgCl2, 8.6% sucrose, pH 6.5). After Dounce homogenization (30 stroke), the nuclei were collected by centrifugation at 1000 rpm for 10 minutes, washed 3 times with 15 mL of the lysis buffer, and once with 15 mL of ice-cooled washing buffer (10 mM Tris-HCl, 13 mM EDTA, pH 7.4) successively. The pellet was suspended in 6 mL of ice-cooled water using a mixer, and 68 μl of H2SO4 was added to the suspension to give a concentration of 0.4 N. After incubation at 4° C. for 1 hour, the suspension was centrifuged for 5 minutes at 15, 000 rpm, and the supernatant was taken and mixed with 60 mL of acetone. After overnight incubation at −20° C., the coagulated material was collected by microcentrifugation, air-dried, and stored at −80° C.
Assay for Histone Deacetylase Activity
For the standard assay, 10 μl of [^3H] acetyl-labeled histones were added to 90 μl of the enzyme fraction, and the mixture was incubated at 25° C. for 30 minutes. The reaction was stopped by addition of 10 μL of HCl. The released [^3H] acetic acid was extracted with 1 mL of ethyl acetate, and 0.9 mL of the solvent layer was taken into 10 mL of toluene scintillation solution for determination of radioactivity.

[2] = system: splenic cells of Lewis rats; experiment: Test 2: Determination of T-Cell Growth Inhibitor Activity (T lymphocyte blastogenesis test); assay type: cell-based; conditions: Rattus norvegicus, Concanavalin A added, 72 hours, AlamarBlue Assay, read-out: Test 2: T-cell growth inhibitory activity IC50
Procedure: Test 2: Determination of T-Cell Growth Inhibitor Activity The T lymphocyte blastogenesis test was performed in microtiter plates with each well containing 1.5×10^5 splenic cells of Lewis rats in 0.1 mL RPMI-1640 medium supplemented with 10% fetal bovine serum (FBS), […] 2-mercaptoethanol, penicillin (100 units/mL) and streptomycin (100 μg/mL), to which Concanavalin A (1 μl/mL) was added. The cells were incubated at 37° C. in a humidified atmosphere of 5% CO2 for 72 hours. After the culture period, suppressive activities of the test compounds in T lymphocyte blastogenesis were quantified by AlamarBlue (trademark) Assay. The test samples were dissolved in DMSO and further diluted with RPMI-1640 medium and added to the culture. The activities of the test compounds were expressed as IC50.

Row | IC50 [1] | SMILES | IC50 [2]
1 | < 10 nM | O=C(/C=C/c1ccc(N[C@@H]2CCN(Cc3ccccc3)C2)nc1)NO [Example 3, (2E)-3-(6-{[(3R)-1-Benzyl-3-pyrrolidinyl]amino}-3-pyridyl)-N-hydroxyacrylamide dihydrochloride] | < 25 nM
2 | < 10 nM | O=C(/C=C/c1ccc(N[C@@H]2CCN(CC3CCCCC3)C2)nc1)NO [Example 60, (2E)-3-(6-{[(3R) 1-(Cyclohexylmethyl)-3-pyrrolidinyl]amino}-3-pyridyl)-N-hydroxyacrylamide dihydrochloride] | < 25 nM
3 | < 10 nM | O=C(/C=C/c1cnc(N[C@@H]2CCN(Cc3ccc(Cl)cc3)C2)cn1)NO [Example 74, (2E)-3-(5-{[(3R)-1-(4-chlorobenzyl)-3-pyrrolidinyl]amino}-2-pyrazinyl)-N-hydroxyacrylamide dihydrochloride] | < 25 nM
4 | < 10 nM | O=C(/C=C/c1cnc(N[C@@H]2CCCN(Cc3ccccc3)C2)cn1)NO [Example 76, (2E)-3-(5-{[(3R)-1-Benzyl-3-piperidinyl]amino}-2-pyrazinyl)-N-hydroxyacrylamide dihydrochloride] | < 25 nM
5 | < 10 nM | O=C(/C=C/c1cnc(N[C@@H]2CCN(Cc3ccccc3)C2)cn1)NO [Example 82, (2E)-3-(5-{[(3R)-1-Benzyl-3-pyrrolidinyl]amino}-2-pyrazinyl)-N-hydroxyacrylamide dihydrochloride] | < 25 nM
6 | < 10 nM | O=C(/C=C/c1cnc(N[C@@H]2CCN(Cc3ccc(F)cc3)C2)cn1)NO [Example 116, (2E)-3-(5-{[(3R)-1-(4-fluorobenzyl)-3-pyrrolidinyl]amino}-2-pyrazinyl)-N-hydroxyacrylamide dihydrochloride] | < 25 nM
7 | < 10 nM | O=C(/C=C/c1cnc(N[C@@H]2CCN(CCc3ccccc3)C2)cn1)NO [Example 119, (2E)-N-hydroxy-3-(5-{[(3R)-1-(2-phenylethyl)-3-pyrrolidinyl]amino}-2-pyrazinyl)acrylamide dihydrochloride] | < 25 nM
8 | < 10 nM | O=C(/C=C/c1cnc(N[C@@H]2CCN(C3CCCCC3)C2)cn1)NO [Example 123, (2E)-3-(5-{[(3R)-1-cyclohexyl-3-pyrrolidinyl]amino}-2-pyrazinyl)-N-hydroxyacrylamide dihydrochloride] | < 25 nM
9 | < 10 nM | O=C(/C=C/c1cnc(N[C@@H]2CCN(C(=O)C3CCCCC3)C2)c(Cl)c1)NO [Example 174, (2E)-3-(5-chloro-6-{[(3R)-1-(cyclohexylcarbonyl)-3-pyrrolidinyl]amino}-3-pyridinyl)-N-hydroxyacrylamide hydrochloride] | < 25 nM
10 | < 10 nM | CC1=C(CN2CC[C@@H](Nc3ccc(/C=C/C(=O)NO)cn3)C2)C(C)(C)CCC1 [Example 189, (2E)-N-hydroxy-3-[6-({(3R)-1-[(2,6,6-trimethyl-1-cyclohexen-1-yl)methyl]-3-pyrrolidinyl}amino)-3-pyridinyl]acrylamide dihydrochloride] | < 25 nM
